The values below come from ChEMBL document CHEMBL6178019, “Discovery of CYP1A1 Inhibitors for Host-Directed Therapy against Sepsis” (J Med Chem, 2025).

Common to all, as to type: cell-based
The target of data set [1] is T1, Cytochrome P450 1A1 (Homo sapiens, UniProt P04798).
T1 sequence (P04798 whole entry): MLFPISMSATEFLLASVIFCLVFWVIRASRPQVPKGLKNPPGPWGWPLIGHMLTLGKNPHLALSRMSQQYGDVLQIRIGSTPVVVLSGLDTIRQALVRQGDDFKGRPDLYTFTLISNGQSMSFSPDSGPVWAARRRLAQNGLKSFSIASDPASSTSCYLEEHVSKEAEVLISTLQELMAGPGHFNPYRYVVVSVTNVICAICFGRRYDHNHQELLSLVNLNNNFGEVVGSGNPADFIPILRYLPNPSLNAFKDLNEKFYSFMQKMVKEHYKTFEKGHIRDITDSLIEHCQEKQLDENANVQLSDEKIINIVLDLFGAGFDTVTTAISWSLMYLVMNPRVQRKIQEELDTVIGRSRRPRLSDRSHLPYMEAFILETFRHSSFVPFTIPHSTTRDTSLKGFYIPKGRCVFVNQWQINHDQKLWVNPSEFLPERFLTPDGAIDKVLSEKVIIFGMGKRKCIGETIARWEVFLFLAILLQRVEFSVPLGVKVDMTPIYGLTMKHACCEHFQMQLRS
Kind of data set: Inhibition of CYP1A1 in human Caco-2 cells assessed as relative activity by measuring fold change at 5.0 uM incubated for 12 hrs by EROD assay relative to control. To be noted: caco-2, 12 h.

In data set [2] the target is T2, CYP1A1 (Homo sapiens, UniProt P04798).
T2 sequence (P04798 whole entry): T1 sequence (P04798 whole entry)
The experiment in a line: Inhibition of CYP1A1 in human Caco-2 cells assessed as relative activity by measuring fold change at 500 nM incubated for 12 hrs by EROD assay relative to control. To be noted: read-out: FC.

The target of data set [3] is T3, CYP1A1 (Mus musculus, UniProt P00184).
T3 sequence (P00184 whole entry): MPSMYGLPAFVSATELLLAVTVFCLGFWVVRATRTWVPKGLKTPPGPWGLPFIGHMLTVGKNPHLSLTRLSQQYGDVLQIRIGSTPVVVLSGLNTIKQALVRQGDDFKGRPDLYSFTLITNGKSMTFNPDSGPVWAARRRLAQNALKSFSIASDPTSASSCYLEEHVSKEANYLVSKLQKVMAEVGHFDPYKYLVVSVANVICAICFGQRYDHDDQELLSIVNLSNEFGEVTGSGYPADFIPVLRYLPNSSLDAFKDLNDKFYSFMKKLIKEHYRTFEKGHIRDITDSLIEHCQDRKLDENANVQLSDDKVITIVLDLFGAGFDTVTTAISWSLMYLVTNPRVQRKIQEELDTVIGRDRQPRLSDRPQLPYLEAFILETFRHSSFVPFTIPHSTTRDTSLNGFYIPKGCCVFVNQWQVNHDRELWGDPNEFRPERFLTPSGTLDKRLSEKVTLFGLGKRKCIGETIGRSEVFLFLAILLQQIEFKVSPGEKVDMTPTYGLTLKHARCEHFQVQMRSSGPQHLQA
Kind of data set: Inhibition of CYP1A1 in mouse RAW264.7 cells assessed as relative activity by measuring fold change at 5 uM incubated for 12 hrs by EROD assay relative to control. To be noted: read-out: FC.

For data set [4], the target named is T3, CYP1A1. Kind of data set: Inhibition of CYP1A1 in mouse RAW264.7 cells at 5 uM incubated for 12 hrs by EROD assay relative to control.
Data set [5] addresses T2, CYP1A1. The experiment in a line: Inhibition of CYP1A1 in human Caco-2 cells at 5 uM incubated for 12 hrs by EROD assay relative to control.
The target in data set [6] is T3, CYP1A1. The experiment in a line: Inhibition of CYP1A1 in mouse RAW264.7 cells assessed as relative activity by measuring fold change at 500 nM incubated for 12 hrs by EROD assay relative to control. As to conditions: read-out: FC.
In data set [7] the target is T1, Cytochrome P450 1A1. The experiment in a line: Inhibition of CYP1A1 in human Caco-2 cells incubated for 12 hrs by EROD assay. As to conditions: caco-2, 12 h, at 50 to 5000 nM, dose 50-5000 nM.

Broadly, the inhibition is the change of the read-out against control, counted positive when it falls. Higher therefore signals strong suppression. As to `Cn1c(=O)n(C)c2cc(C(=O)/C=C/c3ccsc3)ccc21`, the “fold change (FC)” value at Cytochrome P450 1A1 [1] is 0.19. Further, the fold induction at 12 h, 0.5 µM at CYP1A1 [2] was found to be 0.43; at CYP1A1 [6], 0.58. Besides, at CYP1A1 [3], the fold induction at 12 h, 5 µM was 0.32. For the same compound, the inhibition at 12 h, 5 µM on CYP1A1 [4] and against CYP1A1 [5] was roughly 80% each time.
Turning to `Cn1c(=O)n(C)c2cc(C(=O)/C=C/c3cccs3)ccc21`, the “fold change (FC)” value on Cytochrome P450 1A1 [1] is given as 0.18. Further, the figures for the fold induction at 12 h, 0.5 µM at CYP1A1 [2] and on CYP1A1 [6] were 0.45 and 0.38, respectively. For the same compound, at CYP1A1 [3], the fold induction at 12 h, 5 µM came to 0.23. For the same compound, the inhibition at 12 h, 5 µM at CYP1A1 [4] and at CYP1A1 [5] was roughly 80% throughout.
For the compound `Cn1c(=O)n(C)c2cc(C(=O)/C=C/c3cn(Cc4ccccc4)c4ccccc34)ccc21`, the “fold change (FC)” value at Cytochrome P450 1A1 [1] is 0.33. For the same compound, the fold induction at 12 h, 0.5 µM was 0.52 at CYP1A1 [2] and 0.84 at CYP1A1 [6]. Also, the fold induction at 12 h, 5 µM at CYP1A1 [3] is 0.78.
On to `Cn1c(=O)n(C)c2cc(C(=O)/C=C/c3cc(F)cc(F)c3)ccc21`, for which the “fold change (FC)” value at Cytochrome P450 1A1 [1] was 0.74. Besides, the fold induction at 12 h, 0.5 µM on CYP1A1 [2] was determined as 0.89; at CYP1A1 [6], 0.76. In addition, the fold induction at 12 h, 5 µM at CYP1A1 [3] is 0.89.
Regarding `Cn1c(=O)n(C)c2cc(C(=O)/C=C/c3ccccc3F)ccc21`, at Cytochrome P450 1A1 [1], the “fold change (FC)” value is 0.04. Further, the fold induction at 12 h, 0.5 µM on CYP1A1 [2] turned out to be 0.32; at CYP1A1 [6] it was 1.17. Besides, the fold induction at 12 h, 5 µM at CYP1A1 [3] turned out to be 1.02. For the same compound, the inhibition at 12 h, 5 µM on CYP1A1 [5] turned out to be 100%. Further, the “inhibition (INH)” value against Cytochrome P450 1A1 [7] was “Dose-dependent-effect”.
Turning to `Cn1c(=O)n(C)c2cc(C(=O)/C=C/c3ccc([N+](=O)[O-])cc3)ccc21`, the “fold change (FC)” value at Cytochrome P450 1A1 [1] is reported as 0.37. For the same compound, the fold induction at 12 h, 0.5 µM came out at 0.97 at CYP1A1 [2] and 0.79 on CYP1A1 [6]. Further, the fold induction at 12 h, 5 µM at CYP1A1 [3] was determined as 0.64.
Consider `Cn1c(=O)n(C)c2cc(C(=O)/C=C/c3ccc(F)cc3F)ccc21`, for which the “fold change (FC)” value on Cytochrome P450 1A1 [1] was 0.42. The results for the fold induction at 12 h, 0.5 µM at CYP1A1 [2] and on CYP1A1 [6] were 0.68 and 0.74, respectively. The fold induction at 12 h, 5 µM on CYP1A1 [3] amounted to 0.56.
For `Cn1c(=O)n(C)c2cc(C(=O)/C=C/c3cccnc3Br)ccc21`, in that order: 0.22, 0.63, 0.94 and 0.22.
With `CC(C)=CCC/C(C)=C/COc1c2ccoc2cc2oc(=O)ccc12` [BERGAMOTTIN], the “fold change (FC)” value at Cytochrome P450 1A1 [1] turned out to be 0.05. Also, the fold induction at 12 h, 0.5 µM was determined as 0.19 at CYP1A1 [2] and 0.44 on CYP1A1 [6]. For the same compound, the fold induction at 12 h, 5 µM at CYP1A1 [3] was 0.18.
`Cn1c(=O)n(C)c2cc(C(=O)/C=C/c3cccc(F)c3)ccc21`: the “fold change (FC)” value on Cytochrome P450 1A1 [1] is reported as 0.07. Moreover, the fold induction at 12 h, 0.5 µM at CYP1A1 [2] came to 0.32; at CYP1A1 [6], 1.42. Further, the fold induction at 12 h, 5 µM on CYP1A1 [3] was determined as 0.8.
For `Cn1c(=O)n(C)c2cc(C(=O)/C=C/C#C[Si](C)(C)C)ccc21`, the “fold change (FC)” value at Cytochrome P450 1A1 [1] was found to be 0.11. The fold induction at 12 h, 0.5 µM at CYP1A1 [2] came out at 0.66; at CYP1A1 [6], 0.55. In addition, at CYP1A1 [3], the fold induction at 12 h, 5 µM was 0.15.
On to `Cn1c(=O)n(C)c2cc(C(=O)/C=C/c3ccccn3)ccc21`, for which the “fold change (FC)” value on Cytochrome P450 1A1 [1] came to 0.88. The fold induction at 12 h, 0.5 µM worked out at 0.83 at CYP1A1 [2] and 0.9 at CYP1A1 [6]. Further, on CYP1A1 [3], the fold induction at 12 h, 5 µM turned out to be 0.16.
Take `Cn1c(=O)n(C)c2cc(C(=O)/C=C/c3ccoc3)ccc21`: on Cytochrome P450 1A1 [1], the “fold change (FC)” value came to 0.18. The fold induction at 12 h, 0.5 µM amounted to 0.57 on CYP1A1 [2] and 0.93 on CYP1A1 [6]. For the same compound, the fold induction at 12 h, 5 µM at CYP1A1 [3] was 0.67.
Consider `CSc1ccc(/C=C/C(=O)c2ccc3c(c2)n(C)c(=O)n3C)cc1`, for which the “fold change (FC)” value at Cytochrome P450 1A1 [1] is 0.78. Also, the fold induction at 12 h, 0.5 µM worked out at 0.81 at CYP1A1 [2] and 0.57 at CYP1A1 [6]. Also, at CYP1A1 [3], the fold induction at 12 h, 5 µM was 0.2.
